Test results from ChEMBL document CHEMBL5604062, “ASAP - ZIKV NS2B-NS3 protease fluorescence dose response” (2024).
Values joined by “and” are separate entries in the source; they are usually repeats but may differ in a detail not shown here. Equal values may be shown once.

Experiments:
Nonstructural protein 3 [1] = target: T1, Nonstructural protein 3 (Zika virus, UniProt A0A024AXB9); test: Functional biochemical assay to identify treatments for viral infectious disease that targets Zika NS2B-NS3 protease. Utilizing a direct enzyme activity measurement method, reading the fluorescence intensity is used to characterize the relative potency of inhibitors as IC50.; parameters: species or system PRVABC59
T1 sequence (A0A024AXB9 whole entry): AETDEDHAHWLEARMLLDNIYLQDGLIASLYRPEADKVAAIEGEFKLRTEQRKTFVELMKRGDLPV

Nonstructural protein 3 [2] = target: T1, Nonstructural protein 3; test: Functional biochemical assay to identify treatments for viral infectious disease that targets Zika NS2B-NS3 protease. Utilizing a direct enzyme activity measurement method, reading the fluorescence intensity is used to characterize the relative potency of inhibitors as IC50. Synthetic construct has been made based on Zika virus (strain PRVABC59) by Centre for Medicines Discovery, University of Oxford, and the assay has been performed by Enamine biological services, Bienta Ltd.The protocol is publicly available: dx.doi.org/10.17504/protocols.io.36wgqn273gk5/v1

IC50 (Nonstructural protein 3 [1])	IC50 (Nonstructural protein 3 [2])	SMILES
> 25000 nM	> 25000 nM	Cc1c(C(=O)Nc2cc(C3CCOCC3)ccn2)cc(C2CC2)n1C
192 nM	317 nM and 284 nM	O=C(Nc1ccc2c(c1)CN[C@H]2CC1CC1)c1cc(F)cc2[nH]ncc12
69 nM and 55 nM	193 nM and 233 nM	NC(=O)COc1ccc(Br)cc1[C@H](Nc1ccc2c(c1)CNC2)C(=O)NCC(F)F
> 25000 nM	> 25000 nM	Cc1c(C(=O)Nc2cccc(-c3nc(C4CC4)no3)c2)cc(C2CC2)n1C
> 25000 nM	> 25000 nM	Cc1c(C(=O)Nc2cccc(-c3ccoc3)c2)cc(C2CC2)n1C
54 nM and 38 nM	146 nM	Nc1ccncc1-c1cc(F)cc(C(=O)Nc2ccc3c(c2)CNC3)c1
–	6210 nM and 4390 nM and 8320 nM and 7700 nM and 6310 nM and 6150 nM and 5910 nM and 5860 nM and 5590 nM	N=C(N)NCCC[C@H](NC(=O)c1nccs1)C(=O)N[C@@H](CCCCN)C(=O)N[C@@H](C(N)=O)c1ccc(OCc2ccc(C(F)(F)F)cc2)cc1
125 nM and 219 nM	216 nM	NCc1csc2cc(C(=O)Nc3ccc4c(c3)CNC4)ccc12
99 nM and 77 nM	143 nM and 147 nM	O=C(NCC(F)F)[C@H](Nc1ccc2c(c1)CNC2)c1cc(Br)cc2ccccc12
> 25000 nM	> 25000 nM	Cc1c(C(=O)Nc2cccc(CS(C)(=O)=O)c2)cc(C2CC2)n1C
57 nM and 42 nM	135 nM and 143 nM	N#CCOc1ccc(Br)cc1[C@H](Nc1ccc2c(c1)CNC2)C(=O)NCC(F)F
4840 nM	21500 nM	COC(=O)[C@H]1NCc2cc(NC(=O)c3cc(F)cc4[nH]ncc34)ccc21
481 nM	2120 nM and 2360 nM	CN(C)C(=O)C[C@H]1NCc2cc(NC(=O)c3cc(Cl)cc4[nH]ncc34)ccc21
> 25000 nM	> 25000 nM	Cc1c(C(=O)Nc2ccc3c(c2)C[C@H](C(N)=O)O3)cc(C2CC2)n1C
1540 nM	2320 nM	NCc1cccc(NC(=O)c2cccc3c2CC(=O)N3)c1
1870 nM	3460 nM	CC(C)n1nncc1-c1cc(F)cc(C(=O)Nc2ccc3c(c2)CNC3)c1
> 25000 nM	> 25000 nM	CC(C)CNC(=O)c1cc(Cl)cc2[nH]c(-c3cccc(C#N)c3)nc12
> 25000 nM	> 25000 nM	NC(=O)c1cn(C2CCCC2)nc1NC(=O)c1cccc2c1CC(=O)N2
–	> 25000 nM	N#Cc1cccc(-c2nc3c(C(=O)Nc4cccnc4)cc(Cl)cc3[nH]2)c1
> 25000 nM	> 25000 nM	CCc1cnc2c(NC(=O)c3cccc4c3CC(=O)N4)cnn2c1
–	4210 nM	O=C(Nc1ccc2c(c1)CNC2)c1cc(Cl)cc2[nH]c(-c3cccc(F)c3)nc12
20 nM and < 12 nM	114 nM and 107 nM	O=C(NCC(F)F)[C@H](Nc1cnc2c(c1)CNC2)c1cc(Cl)cc(C2CC2)c1
212 nM	198 nM and 238 nM	O=C(NCC(F)F)[C@H](Nc1ccc2c(c1)CNC2)c1cc(Br)ccc1Oc1ccc(Cl)c(Cl)c1
167 nM	1070 nM and 985 nM	CC(C)(C)NC(=O)C[C@H]1NCc2cc(NC(=O)c3cc(Cl)cc4[nH]ncc34)ccc21
88 nM and 77 nM	158 nM	CS(=O)(=O)c1cncc(-c2cc(F)cc(C(=O)Nc3ccc4c(c3)CNC4)c2)c1
19 nM and < 12 nM	104 nM and 88 nM	CNC(=O)c1cc(Br)cc([C@H](Nc2ccc3c(c2)CNC3)C(=O)NCC(F)F)c1
4190 nM	19600 nM	O=C(NCC(F)F)[C@H](Nc1ncc2c(n1)CNC2)c1cc(Cl)cc(C2CC2)c1

IC50 (Nonstructural protein 3 [1])	IC50 (Nonstructural protein 3 [2])	SMILES
> 25000 nM	> 25000 nM	Cc1c(C(=O)Nc2ccc3c(c2)CN(C)C3=O)cc(C2CC2)n1C
487 nM	502 nM and 1320 nM	CN(C)C(=O)C[C@H]1NCc2cc(NC(=O)c3cc(F)cc4[nH]ncc34)ccc21
215 nM	255 nM and 550 nM	O=C(Nc1ccc2c(c1)CN[C@H]2C1CC1)c1cc(F)cc2[nH]ncc12
> 25000 nM	> 25000 nM	N#Cc1cccc(-c2nc3c(C(=O)Nc4ccc(F)cc4)cc(Cl)cc3[nH]2)c1
9190 nM	18100 nM and > 25000 nM	CC1(C)NCc2cc(NC(=O)c3cc(F)cc4[nH]ncc34)ccc21
–	> 25000 nM	N#Cc1cccc(-c2nc3c(C(=O)NCc4ccccc4)cc(Cl)cc3[nH]2)c1
401 nM	2100 nM	O=C([C@H](Nc1ccc2c(c1)CNC2)c1cc(Cl)cc(C2CC2)c1)N1CCOCC1
488 nM	646 nM and 1460 nM	C[C@H]1NCc2cc(NC(=O)c3cc(F)cc4[nH]ncc34)ccc21
> 25000 nM	> 25000 nM	N#Cc1cccc(-c2nc3c(C(=O)Nc4cccc(F)c4)cc(Cl)cc3[nH]2)c1
77 nM and 66 nM	130 nM and 131 nM	O=C1C[C@H](c2cccc(-c3cc(F)cc(C(=O)Nc4ccc5c(c4)CNC5)c3)c2)N1
> 25000 nM	> 25000 nM	N#Cc1cccc(-c2nc3c(C(=O)Nc4ccccn4)cc(Cl)cc3[nH]2)c1
22700 nM	> 25000 nM	CC(=O)N(c1ccc2c(c1)CNC2)[C@]1(c2cc(Cl)cc(C3CC3)c2)CN(C)C1=O
> 25000 nM	> 25000 nM	O=C1Cc2c(cccc2C(=O)Nc2ccnn2Cc2ccncc2)N1
16 nM	53 nM and 76 nM	O=C(NCC(F)F)[C@H](Nc1ccc2c(c1)CNC2)c1cc(Cl)cc2cccnc12
> 25000 nM	> 25000 nM	O=C1Cc2c(cccc2C(=O)Nc2cccc(-c3cn[nH]c3)c2)N1
29 nM and 20 nM	141 nM and 127 nM	O=C(NCC(F)F)[C@H](Nc1ccc2c(c1)CNC2)c1cc(Br)cc2cn[nH]c12
1230 nM	2110 nM	O=C1Cc2c(cccc2C(=O)Nc2ccc3c(c2)CCNCC3)N1
> 25000 nM	> 25000 nM	O=C1Cc2c(cccc2C(=O)Nc2nnc3n2CCCS3)N1
185 nM	1060 nM and 2300 nM	CC(C)NC(=O)C[C@H]1NCc2cc(NC(=O)c3cc(Cl)cc4[nH]ncc34)ccc21
> 25000 nM	> 25000 nM	Cc1c(C(=O)Nc2ccc3c(c2F)CCN(C)C3=O)cc(C2CC2)n1C
> 25000 nM	> 25000 nM	Cc1c(C(=O)Nc2cccc(Cn3cccn3)c2)cc(C2CC2)n1C
3990 nM	7760 nM and 9210 nM	C[C@]1(S(C)(=O)=O)C(=O)Nc2cc(F)cc(C(=O)Nc3ccc4c(c3)CNC4)c21
1330 nM	3180 nM and 3280 nM	O=C(Nc1ccc2c(c1)CN[C@H]2C(=O)O)c1cc(F)cc2[nH]ncc12
> 25000 nM	> 25000 nM	Cn1nc(CNc2cc([C@H]3CCOC3)ccn2)cc1C1CC1
126 nM	714 nM	CC(=O)N1CC[C@]2(C1)C(=O)Nc1cccc(C(=O)Nc3ccc4c(c3)CNC4)c12
> 25000 nM	> 25000 nM	O=C1Cc2c(cccc2C(=O)Nc2nc([C@H]3CCCOC3)cs2)N1
19 nM and 13 nM	106 nM and 91 nM	O=C(NCC(F)F)[C@H](Nc1cc2c(cc1Br)CNC2)c1cc(Cl)cc(C2CC2)c1

IC50 (Nonstructural protein 3 [1])	IC50 (Nonstructural protein 3 [2])	SMILES
23 nM (2×) and 14 nM and 27 nM	90 nM and 98 nM	COc1ccc(-c2nc3c(C(=O)Nc4ccc5c(c4)CNC5)cc(F)cc3[nH]2)nn1
–	2520 nM	O=C(Nc1ccc2c(c1)CNC2)c1cc(Cl)cc2[nH]c(-c3ccccc3)nc12
333 nM	533 nM	NCCc1cccc(NC(=O)c2cccc3c2CC(=O)N3)c1
182 nM	260 nM	O=C(O)COc1ccc(Cl)cc1[C@H](Nc1ccc2c(c1)CNC2)C(=O)NCC(F)F
44 nM and 37 nM	201 nM	O=C(NCC(F)F)[C@H](Nc1ccc2c(c1)CNC2)c1cc(Br)cc2nc[nH]c12
> 25000 nM	> 25000 nM	CC(=O)N(c1ccc2c(c1)CNC2)[C@]1(c2cc(Cl)cc(C3CC3)c2)CCCN(C)C1=O
> 25000 nM	> 25000 nM	O=C1Cc2c(cccc2C(=O)Nc2cc(Br)c3ncnn3c2)N1
> 25000 nM	> 25000 nM	O=C1Cc2c(cccc2C(=O)Nc2ccc(N3CCOC3=O)nc2)N1
> 25000 nM	> 25000 nM	Clc1cc(CNc2ncc3c(n2)CNC3)c2cn[nH]c2c1
187 nM	999 nM and 1080 nM	CNC(=O)C[C@H]1NCc2cc(NC(=O)c3cc(Cl)cc4[nH]ncc34)ccc21
–	> 25000 nM	N#Cc1cccc(-c2nc3c(C(=O)Nc4ccncc4)cc(Cl)cc3[nH]2)c1
–	> 25000 nM	N#Cc1cccc(-c2nc3c(C(=O)NCc4cccnc4)cc(Cl)cc3[nH]2)c1
–	> 25000 nM	N#Cc1cccc(-c2nc3c(C(=O)NCc4ccccn4)cc(Cl)cc3[nH]2)c1
–	1020 nM and 213 nM	O=C(NC1CCOCC1)[C@H](Nc1ccc2c(c1)CNC2)c1cc(Cl)cc(C2CC2)c1
> 99500 nM	–	CCn1c(=O)c(N2CC[C@H](CO)C2)nc2ccc(C(=O)N(C)C)cc21
32600 nM	–	Cn1cncc1COc1cccc([C@H](NC(=O)OCc2ccccc2)C(=O)Nc2cccc(CN)c2)c1
27800 nM	–	O=C(O)c1ccsc1NS(=O)(=O)c1ccc(Oc2ccccc2Cl)cc1
93700 nM	–	NCc1ccnc(CNC(=O)[C@@H](NC(=O)OCc2ccccc2)c2ccc(OCc3ccccc3)cc2)c1
> 99500 nM	–	COc1ccc(N2CCC(NS(=O)(=O)c3ccc(Cl)cc3C(=O)O)CC2)cc1
> 99500 nM	–	CC(C)Oc1ccc(S(=O)(=O)Nc2ccc(Cl)cc2C(=O)O)cc1
> 99500 nM	–	Cc1cc(C)n(-c2ccc(NS(=O)(=O)c3ccc(Cl)cc3C(=O)O)cc2)n1
> 99500 nM	–	Cc1ncc(COc2ccc([C@@H](NC(=O)OCc3ccccc3)C(=O)Nc3cccc(CN)c3)cc2)o1
> 99500 nM	–	Cn1nccc1CN1CCC(NS(=O)(=O)c2ccc(Cl)cc2C(=O)O)CC1
> 99500 nM	–	O=C(O)c1ccc(F)c(F)c1NS(=O)(=O)c1ccc(Oc2ccccc2Cl)cc1
> 99500 nM	–	NCc1cccc(NC(=O)[C@@H](NC(=O)OCc2ccccc2)C2CCN(C(=O)C3CC3)CC2)c1

SMILES	IC50 (Nonstructural protein 3 [1])	IC50 (Nonstructural protein 3 [2])
O=C(Nc1cnc2c(c1)CNC2)c1cc(F)cc2[nH]ncc12	27 nM and 15 nM	83 nM
N=C(N)NCCC[C@H](NC(=O)[C@H](Cc1ccc(CN)cc1)NC(=O)c1ccccc1)B(O)O	508 nM and 353 nM and 260 nM and 186 nM and 245 nM and 211 nM (2×) and 238 nM and < 2.49 µM (9×) and 73 nM and 247 nM and 292 nM and 237 nM and 241 nM and 141 nM and 262 nM and 254 nM and 233 nM	559 nM and 327 nM and 558 nM and 628 nM and 585 nM and 637 nM and 438 nM and 552 nM and 595 nM
O=C(Nc1cc2c(cn1)CNC2)c1cc(F)cc2[nH]ncc12	77 nM and 55 nM	163 nM
